This passage reports DC50 and Dmax results from patent publication US12427144B2, “Compounds and methods for the targeted degradation of androgen receptor” (Arvinas Operations, Inc., priority 2019, dated 2025).

SMILES strings stand for the structures.

This experiment has as its target T1, Androgen Receptor (AR) (Homo sapiens, UniProt P10275).
T1 construct: endogenous in cells; host or cells: VCaP
T1 sequence (P10275 1-920): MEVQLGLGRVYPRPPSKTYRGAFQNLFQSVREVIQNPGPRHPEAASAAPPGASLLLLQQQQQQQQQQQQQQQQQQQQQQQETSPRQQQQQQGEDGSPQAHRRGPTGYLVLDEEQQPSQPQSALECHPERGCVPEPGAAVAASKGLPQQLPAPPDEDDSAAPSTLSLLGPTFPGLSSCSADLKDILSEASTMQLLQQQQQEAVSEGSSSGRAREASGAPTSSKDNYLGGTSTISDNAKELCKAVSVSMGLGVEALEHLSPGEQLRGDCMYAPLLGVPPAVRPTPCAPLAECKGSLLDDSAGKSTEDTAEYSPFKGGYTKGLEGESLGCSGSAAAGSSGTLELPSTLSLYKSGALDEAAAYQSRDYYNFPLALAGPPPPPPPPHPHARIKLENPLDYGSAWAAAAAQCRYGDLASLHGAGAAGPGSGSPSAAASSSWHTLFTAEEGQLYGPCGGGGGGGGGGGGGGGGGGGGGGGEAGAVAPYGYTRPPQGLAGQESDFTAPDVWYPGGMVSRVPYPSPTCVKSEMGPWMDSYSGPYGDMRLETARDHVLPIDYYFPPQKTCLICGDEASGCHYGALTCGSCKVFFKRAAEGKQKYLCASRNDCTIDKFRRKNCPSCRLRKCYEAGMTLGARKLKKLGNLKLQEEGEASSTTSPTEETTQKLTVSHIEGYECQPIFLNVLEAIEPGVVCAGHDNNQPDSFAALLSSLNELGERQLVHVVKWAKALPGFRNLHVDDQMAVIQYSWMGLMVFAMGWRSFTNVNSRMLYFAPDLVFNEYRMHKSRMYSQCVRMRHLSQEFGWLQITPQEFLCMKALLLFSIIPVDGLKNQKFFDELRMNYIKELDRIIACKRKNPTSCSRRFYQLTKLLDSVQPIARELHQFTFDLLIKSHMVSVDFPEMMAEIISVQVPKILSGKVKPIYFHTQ
As to the kind of experiment: AR immunofluorescence staining, high content imager, VCaP cells. The class given is cell-based. The note with it: for DC50: AR degradation by immunofluorescence; for Dmax: maximal AR degradation. In a few lines:
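VCaP cells treated with compound, fixed in 4% PFA (8% 2× solution added directly for low-adherence lines), permeabilised with 0.1% Triton X-100 and blocked. Stained overnight at 4° C with anti-AR antibody, then FITC anti-rabbit secondary plus phalloidin and DAPI/Hoechst. Read by high-content imaging.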

The molecule `Cc1cc(O[C@H]2C(C)(C)[C@H](NC(=O)c3ccc(N4CCO[C@H](CN5CCN(c6ccc(C(=O)N[C@H]7CCC(=O)NC7=O)c(F)c6)CC5)C4)cc3)C2(C)C)cc(C)c1C#N` [Compound 48, N-[(3S)-2,6-dioxopiperidin-3-yl]-2-fluoro-4-(4-{[(2R)-4-(4-{[(1r,3r)-3-(4-cyano-3,5-dimethylphenoxy)-2,2,4,4-tetramethylcyclobutyl]carbamoyl}phenyl)morpholin-2-yl]methyl}piperazin-1-yl)benzamide] yielded a DC50 of less than 1 nM and a Dmax not below 70%.

`COCCN(C[C@H]1CN(c2ccc(C(=O)N[C@H]3C(C)(C)[C@@H](Oc4ccc(C#N)c(OC)c4)C3(C)C)cc2)CCO1)[C@H]1C[C@H](Oc2ccc(C(=O)N[C@@H]3CCC(=O)NC3=O)c(F)c2)C1` [Compound 50, 4-[(2S)-2-{[(2-methoxyethyl)[(1r,3r)-3-(4-{[(3R)-2,6-dioxopiperidin-3-yl]carbamoyl}-3-fluorophenoxy)cyclobutyl]amino]methyl}morpholin-4-yl]-N-[(1r,3r)-3-(4-cyano-3-methoxyphenoxy)-2,2,4,4-tetramethylcyclobutyl]benzamide] had a DC50 of less than 1 nM and a Dmax not below 70%.

Take `COCCN(C[C@H]1CN(c2ccc(C(=O)N[C@H]3C(C)(C)[C@@H](Oc4cc(C)c(C#N)c(C)c4)C3(C)C)cc2)CCO1)[C@H]1C[C@H](Oc2ccc(C(=O)N[C@@H]3CCC(=O)NC3=O)c(F)c2)C1` [Compound 51, 4-[(2S)-2-{[(2-methoxyethyl)[(1r,3r)-3-(4-{[(3R)-2,6-dioxopiperidin-3-yl]carbamoyl}-3-fluorophenoxy)cyclobutyl]amino]methyl}morpholin-4-yl]-N-[(1r,3r)-3-(4-cyano-3,5-dimethylphenoxy)-2,2,4,4-tetramethylcyclobutyl]benzamide]: the DC50 is less than 1 nM and the Dmax was not below 70%.

`Cc1cc(O[C@H]2C(C)(C)[C@H](NC(=O)c3ccc(N4CCO[C@@H](CN5CCN(c6ccc(C(=O)N[C@H]7CCC(=O)NC7=O)c(F)c6)CC5)C4)cc3)C2(C)C)cc(C)c1C#N` [Compound 52, N-[(3S)-2,6-dioxopiperidin-3-yl]-2-fluoro-4-(4-{[(2S)-4-(4-{[(1r,3r)-3-(4-cyano-3,5-dimethylphenoxy)-2,2,4,4-tetramethylcyclobutyl]carbamoyl}phenyl)morpholin-2-yl]methyl}piperazin-1-yl)benzamide]: the DC50 was less than 1 nM and the Dmax was not below 70%.

The molecule `COc1cc(O[C@H]2C[C@H](N3CCOC4(CCN(c5ccc(C(=O)N[C@H]6C(C)(C)[C@H](Oc7cc(C)c(C#N)c(C)c7)C6(C)C)cc5)CC4)C3)C2)ccc1C(=O)NC1CCC(=O)NC1=O` (stereo partly drawn) [Compound 53, N-(2,6-dioxopiperidin-3-yl)-2-methoxy-4-[(1r,3r)-3-[9-(4-{[(1r,3r)-3-(4-cyano-3,5-dimethylphenoxy)-2,2,4,4-tetramethylcyclobutyl]carbamoyl}phenyl)-1-oxa-4,9-diazaspiro[5.5]undecan-4-yl]cyclobutoxy]benzamide] showed a half-maximal degradation concentration (DC50) of less than 1 nM and a Dmax not below 70%.

The molecule `COc1cc(O[C@H]2C(C)(C)[C@H](NC(=O)c3ccc(N4CCC(O[C@H]5C[C@H](Oc6ccc(C(=O)NC7CCC(=O)NC7=O)c(OC)c6)C5)CC4)cc3)C2(C)C)ccc1C#N` (stereo partly drawn) [Compound 54, N-[(1r,3r)-3-(4-cyano-3-methoxyphenoxy)-2,2,4,4-tetramethylcyclobutyl]-4-{4-[(1r,3r)-3-{4-[(2,6-dioxopiperidin-3-yl)carbamoyl]-3-methoxyphenoxy}cyclobutoxy]piperidin-1-yl}benzamide] displayed a DC50 of less than 1 nM and a Dmax not below 70%.

Molecule `COc1cc(O[C@H]2C[C@H](OC3CCN(c4ccc(C(=O)N[C@H]5C(C)(C)[C@H](Oc6cc(C)c(C#N)c(C)c6)C5(C)C)cc4)CC3)C2)ccc1C(=O)NC1CCC(=O)NC1=O` (stereo partly drawn) [Compound 55, N-(2,6-dioxopiperidin-3-yl)-2-methoxy-4-[(1r,3r)-3-{[1-(4-{[(1r,3r)-3-(4-cyano-3,5-dimethylphenoxy)-2,2,4,4-tetramethylcyclobutyl]carbamoyl}phenyl)piperidin-4-yl]oxy}cyclobutoxy]benzamide] returned a half-maximal degradation concentration (DC50) of less than 1 nM and a Dmax not below 70%.

In turn, `COc1cc(C(=O)NC2CCC(=O)NC2=O)ccc1N1CCN(C[C@H]2CN(c3ccc(C(=O)N[C@H]4C(C)(C)[C@H](Oc5cc(C)c(C#N)c(C)c5)C4(C)C)cc3)CCO2)CC1` (stereo partly drawn) [Compound 56, N-(2,6-dioxopiperidin-3-yl)-3-methoxy-4-(4-{[(2S)-4-(4-{[(1r,3r)-3-(4-cyano-3,5-dimethylphenoxy)-2,2,4,4-tetramethylcyclobutyl]carbamoyl}phenyl)morpholin-2-yl]methyl}piperazin-1-yl)benzamide] displayed a DC50 of less than 1 nM and a Dmax not below 70%.

Take `COc1cc(O[C@H]2C(C)(C)[C@H](NC(=O)c3ccc(N4CCO[C@@H](CN5CCN(c6ccc(C(=O)NC7CCC(=O)NC7=O)cc6OC)CC5)C4)cc3)C2(C)C)ccc1C#N` (stereo partly drawn) [Compound 57, N-(2,6-dioxopiperidin-3-yl)-3-methoxy-4-(4-{[(2S)-4-(4-{[(1r,3r)-3-(4-cyano-3-methoxyphenoxy)-2,2,4,4-tetramethylcyclobutyl]carbamoyl}phenyl)morpholin-2-yl]methyl}piperazin-1-yl)benzamide]: the DC50 was less than 1 nM and the Dmax was not below 70%.

Consider `COc1cc(O[C@H]2C(C)(C)[C@H](NC(=O)c3ccc(N4CCO[C@@H](CN5CCN(c6ccc(C(=O)NC7CCC(=O)NC7=O)c(OC)c6)CC5)C4)cc3)C2(C)C)ccc1C#N` (stereo partly drawn) [Compound 58, N-(2,6-dioxopiperidin-3-yl)-2-methoxy-4-(4-{[(2S)-4-(4-{[(1r,3r)-3-(4-cyano-3-methoxyphenoxy)-2,2,4,4-tetramethylcyclobutyl]carbamoyl}phenyl)morpholin-2-yl]methyl}piperazin-1-yl)benzamide], for which the DC50 is less than 1 nM and the Dmax is not below 70%.

Consider `COc1cc(N2CCN(C[C@H]3CN(c4ccc(C(=O)N[C@H]5C(C)(C)[C@H](Oc6cc(C)c(C#N)c(C)c6)C5(C)C)cc4)CCO3)CC2)ccc1C(=O)NC1CCC(=O)NC1=O` (stereo partly drawn) [Compound 59, N-(2,6-dioxopiperidin-3-yl)-2-methoxy-4-(4-{[(2S)-4-(4-{[(1r,3r)-3-(4-cyano-3,5-dimethylphenoxy)-2,2,4,4-tetramethylcyclobutyl]carbamoyl}phenyl)morpholin-2-yl]methyl}piperazin-1-yl)benzamide], for which the DC50 is less than 1 nM and the Dmax was not below 70%.

With `COc1cc(O[C@H]2C(C)(C)[C@H](NC(=O)c3ccc(N4CCC(CN5CCN(c6ccc(C(=O)NC7CCC(=O)NC7=O)cc6OC)CC5)CC4)cc3)C2(C)C)ccc1C#N` (stereo partly drawn) [Compound 60, N-(2,6-dioxopiperidin-3-yl)-3-methoxy-4-(4-{[1-(4-{[(1r,3r)-3-(4-cyano-3-methoxyphenoxy)-2,2,4,4-tetramethylcyclobutyl]carbamoyl}phenyl)piperidin-4-yl]methyl}piperazin-1-yl)benzamide], the DC50 was less than 1 nM and the Dmax was not below 70%.

A word on the DC50: it is the concentration at which degradation of the target reaches its halfway point. As usually defined, the Dmax is the greatest extent of degradation seen. Low values mean a partial loss of target, high ones a fuller loss of target.
